Measurements taken from PMC10855066, “Anti-Inflammatory and Antioxidant Pyrrolo[3,4-d]pyridazinone Derivatives Interact with DNA and Bind to Plasma Proteins—Spectroscopic and In Silico Studies” (International Journal of Molecular Sciences, 2024).

What follows are compounds tested on T1, α1-acid-glycoprotein (AAG); orosomucoid (assay: intrinsic fluorescence quenching, excitation […] nm). Details: double-log; 297 K, 0.01 M phosphate buffer pH 7.4, 1.0 µM AAG, ligand stock in EtOH, inner filter corrected.
T1 construct: gene ORM1; docking only used 3kq0
Format: binding

Binding / Kb.10^4 [dm^3.mol^-1]	Compound
4.57 × 10^4 dm^3·mol^−1	Cc1c2c(OCc3nn(CN4CCN(c5ccccc5)CC4)c(=S)o3)nn(C)c(=O)c2c(C)n1-c1ccccc1 [compound 3, pyrrolo[3,4-d]pyridazinone derivative 3]
1.41 × 10^4 dm^3·mol^−1	Cc1c2c(OCc3nn(CN4CCC(O)(c5ccc(Cl)cc5)CC4)c(=S)o3)nn(C)c(=O)c2c(C)n1-c1ccccc1 [compound 5, pyrrolo[3,4-d]pyridazinone derivative 5]
3.09 × 10^4 dm^3·mol^−1	CCCCn1c(C)c2c(OCc3nn(CN4CCN(c5ccccc5)CC4)c(=S)o3)nn(C)c(=O)c2c1C [compound 1, pyrrolo[3,4-d]pyridazinone derivative 1]
4.57 × 10^4 dm^3·mol^−1	CCCCn1c(C)c2c(OCc3nn(CN4CCC(O)(c5ccc(Cl)cc5)CC4)c(=S)o3)nn(C)c(=O)c2c1C [compound 2, pyrrolo[3,4-d]pyridazinone derivative 2]
5.01 × 10^4 dm^3·mol^−1	Cc1c2c(OCc3nn(CN4CCN(c5ccc([N+](=O)[O-])cc5)CC4)c(=S)o3)nn(C)c(=O)c2c(C)n1-c1ccccc1 [compound 4, pyrrolo[3,4-d]pyridazinone derivative 4]
